# Columns and labels:
# MKN-45 cells = experiment: Antitumor test, MKN-45 transplanted nude mouse; type: in vivo, nude mouse (BALB/c nu/nu); conditions: orally, 14 consecutive days
# Description: (§1) Cancer cells were cultured in a culture medium containing 10% bovine fetal serum in an incubator at 37° C., 5% CO2. MKN-45 cells were treated with trypsin/EDTA and isolated. MKN-45 and MV-4-11 cells were washed with HBSS (HANK's Balanced Saline Solution). When MKN-45 cells were transplanted, they were adjusted with HBSS to a cell density of 1.2×10^8 cells/mL, and transplanted by subcutaneous injection of 0.05 mL of a mixed suspension (3×10^6 cells) of the cell suspension and the same amount of Matrigel into the abdomen of 6 or 7-week-old female nude mouse (BALB/c nu/nu, CLEA Japan, Inc.). When MV-4-11 cells were transplanted, they were adjusted with HESS to a cell density of 1.2×10^8 cells/mL, and transplanted by subcutaneous injection of 0.05 mL of a mixed suspension (3×10^6 cells) of the cell suspension and the same amount of Matrigel into the abdomen of 7-week-old female nude mouse (BALB/c nu/nu, CLEA Japan, Inc.). When the average tumor volume reached 100-250 mm^3, the mice were grouped, and various doses of test substance were orally administered for 14 consecutive days starting from the next day. The length of the major axis and the length of the minor axis of the tumor were measured over time and the tumor volume was calculated by tumor volume=major axis length×minor axis length×minor axis length×0.5. The ratio of an increase in the average tumor volume of the control group to an increase in the average tumor volume of the drug administration group was taken as the tumor growth rate (%) of the drug administration group. Table 5 showned MKN-45 tumor growth rate (%) and table 6 showned MV-4-11 tumor growth rate (%).
# MV-4-11 cells = experiment: Antitumor test, MV-4-11 transplanted nude mouse; type: in vivo, nude mouse (BALB/c nu/nu); conditions: MV-4-11, dose 2 mg/kg, orally, 14 consecutive days
# Description: as §1
# [1] = test system: Human blood cell cancer cell line MV-4-11; experiment: Human blood cell cancer cell line MV-4-11 growth inhibitory test; type: cell-based; conditions: MV4-11, 72 h, culture for 3 days
# Description: Human blood cell cancer cell line MV-4-11 (ATCC) was cultured in IMDM (Invitrogen) containing 10% bovine fetal serum in an incubator at 37° C., 5% CO2. MV-4-11 cells were treated with trypsin/EDTA and recovered. The cells were suspended in IMDM containing 10% bovine fetal serum, plated on a 96 well flat bottom plate at a cells density of 30,000 cells/50 μL per well. After culturing overnight, various concentrations of test substance were dissolved in IMDM containing 10% bovine fetal serum and added to each well by 50 μL. After culture for 3 days, a Cell counting kit-8 reagent (DOJINDO LABORATORIES) was added to each well by 10 μL, and reacted in an incubator at 37° C., 5% CO2 for 2-3 hr. After the reaction, the absorbance of each well at 450 nm was measured by a microtiter plate reader. The concentration of a test substance necessary for inhibiting the growth by 50% (IC50 value) was calculated using a cell proliferation rate with addition of the test substance at each concentration and according to the nonlinear regression analysis using GraphPad Prism [Sigmoidal dose response (variable slope)].
# [2] = target: T1, FLT3 intracellular domain protein (Homo sapiens, UniProt P36888); experiment: Fms Like Tyrosine Kinase 3 (FLT3) kinase inhibitory activity (AlphaScreen); type: biochemical
# T1 construct: 7.5 ng/ml of FLT3 intracellular domain protein (Millipore); purchased Millipore
# T1 sequence (P36888 564-993 limits assumed): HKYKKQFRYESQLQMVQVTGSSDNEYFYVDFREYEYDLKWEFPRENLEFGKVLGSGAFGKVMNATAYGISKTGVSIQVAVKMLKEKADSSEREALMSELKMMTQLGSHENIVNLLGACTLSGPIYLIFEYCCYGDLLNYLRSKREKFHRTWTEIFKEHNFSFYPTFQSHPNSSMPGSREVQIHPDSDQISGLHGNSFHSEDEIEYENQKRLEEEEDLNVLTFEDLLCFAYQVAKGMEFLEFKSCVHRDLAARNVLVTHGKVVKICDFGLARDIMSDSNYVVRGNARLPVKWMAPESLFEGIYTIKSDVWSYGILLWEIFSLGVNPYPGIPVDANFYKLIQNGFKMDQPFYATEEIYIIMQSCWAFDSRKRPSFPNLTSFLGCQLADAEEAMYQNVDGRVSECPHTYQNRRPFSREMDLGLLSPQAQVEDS
# Description: A test compound dissolved in dimethyl sulfoxide (DMSO) was diluted with a buffer (50 mM Tris-HCl (pH 7.5), 5 mM MgCl2, 5 mM MnCl2, 2 mM dithiothreitol, 0.01% Tween-20). To this compound solution (5 μL) was added a buffer (10 μL) containing 7.5 ng/ml of FLT3 intracellular domain protein (Millipore) and 250 ng/mL of biotin labeled polypeptide biotinyl-poly-Glu:Tyr (4:1) (CIS bio International). At 5 min after mixing kinase enzyme and the compound and biotin labeled polypeptide, to the obtained mixture was added a buffer (10 μL) containing ATP (5 μM), the mixture was allowed to react at 25° C. for 10 min and the reaction was quenched with 25 μL of a stop solution (100 mM EDTA disodium salt, 62.5 mM HEPES buffer (pH 7.4), 250 mM NaCl, 0.1% bovine serum albumin, 10 μg/mL AlphaScreen assay streptavidin donor beads (Streptavidin Donor Beads: PerkinElmer), 10 μg/mL AlphaScreen assay anti-phosphotyrosine recognition antibody Y-100 binding acceptor beads (Anti-phosphotyrosine (P-Tyr-100) Acceptor beads: PerkinElmer)). The reaction solution was allowed to stand at 25° C. for 16 hrs, and the wells were counted using a plate reader (Envision™ (PerkinElmer)). The kinase inhibitory rate (%) of the test compound was calculated by the following formula: Inhibitory rate (%)=(1−(count of test compound−blank)÷(control−blank))×100
# (§2) The count of the solution reacted without addition of the compound was used as a “control”, and the count of the solution without the compound and ATP was used as a “blank”.
# [3] = test system: Human gastric cancer cell line MKN-45; experiment: Human gastric cancer cell line MKN-45 growth inhibitory test; type: cell-based; conditions: MKN-45, 72 h
# Description: Human gastric cancer cell line MKN-45 (RIKEN BioResource Center) was cultured in RPMI1640 (Invitrogen) containing 10% bovine fetal serum in a gas incubator at 37° C., 5% CO2. MKN-45 cells were treated with trypsin/EDTA and recovered. The cells were suspended in RPMI1640 containing 0.3% bovine fetal serum, plated on a 96 well flat bottom plate at a cells density of 3000 cells/50 μL per well. After culturing overnight, various concentrations of test substance were dissolved in RPMI1640 containing 0.3% bovine fetal serum and added to each well by 50 μL. After culture for 3 days, a Cell counting kit-8 reagent (DOJINDO LABORATORIES) was added to each well by 10 μL, and reacted in an incubator at 37° C., 5% CO2 for 2-3 hr. After the reaction, the absorbance of each well at 450 nm was measured by a microtiter plate reader. The concentration of a test substance necessary for inhibiting the growth by 50% (IC50 value) was calculated using a cell proliferation rate with addition of the test substance at each concentration and according to the nonlinear regression analysis using GraphPad Prism [Sigmoidal dose response (variable slope)]. The cell proliferation rate (%) with addition of a test substance at each concentration was calculated by the following formula. As a positive control (100% growth), dimethyl sulfoxide was added instead of a test substance. As a negative control (0% growth), the compound of Reference Example 136 (WO2005/030140, Entry 104), which is a known c-Met inhibitor, was added in large excess (10 μM) instead of a test substance.
# [4] = target: T2, Tie2 intracellular domain protein (Homo sapiens, UniProt Q02763); experiment: TIE2 kinase inhibitory activity (AlphaScreen); type: biochemical
# T2 construct: 50 ng/mL of Tie2 intracellular domain protein (Millipore); purchased Millipore
# T2 sequence (Q02763 770-1124 limits assumed): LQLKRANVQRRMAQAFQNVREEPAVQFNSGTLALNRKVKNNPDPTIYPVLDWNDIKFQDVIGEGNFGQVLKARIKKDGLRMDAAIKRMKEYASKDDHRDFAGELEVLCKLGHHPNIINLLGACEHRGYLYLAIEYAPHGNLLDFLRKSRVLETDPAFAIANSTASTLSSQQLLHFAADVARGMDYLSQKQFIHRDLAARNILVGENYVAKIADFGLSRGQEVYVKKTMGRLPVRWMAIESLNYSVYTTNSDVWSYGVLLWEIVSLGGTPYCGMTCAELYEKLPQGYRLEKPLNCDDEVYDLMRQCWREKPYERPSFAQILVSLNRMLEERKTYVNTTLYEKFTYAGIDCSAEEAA
# Description: A test compound dissolved in dimethyl sulfoxide (DMSO) was diluted with a buffer (50 mM Tris-HCl (pH 7.5), 5 mM MgCl2, 5 mM MnCl2, 2 mM dithiothreitol, 0.01% Tween-20). A buffer (10 μL) containing 50 ng/mL of Tie2 intracellular domain protein (Millipore) and 250 ng/ml, of biotin labeled polypeptide biotinyl-poly-Glu:Tyr (4:1) (CIS bio International) was added to the compound solution (5 μL). At 5 min from the mixing of the kinase enzyme, the compound and the biotin labeled polypeptide, a buffer (10 μL) containing 5 μM ATP was added, and the mixture was reacted at 25° C. for 10 min. The reaction was quenched by the addition of 25 μL of a stop solution (100 mM EDTA disodium salt, 62.5 mM HEPES buffer (pH 7.4), 250 mM NaCl, 0.1% bovine serum albumin, 10 μg/ml AlphaScreen assay streptavidin donor beads (Streptavidin Donor beads: PerkinElmer), 10 μg/ml, AlphaScreen assay anti-phosphotyrosine recognition antibody PT-66 binding acceptor beads (Anti-phosphotyrosine (PT-66) Acceptor beads: PerkinElmer)). The reaction solution was allowed to stand at 25° C. for 16 hrs, and the […] were counted using a plate reader (Fusion™ (PerkinElmer)). The kinase inhibitory rate (%) of the test compound was calculated by the following formula: Inhibitory rate (%)=(1−(count of test compound−blank)÷(control−blank))×100
# as §2
# [5] = test system: Human umbilical vein-derived vascular endothelial cells (HUVEC); experiment: Vascular endothelial cell proliferation inhibitory test (VEGF-stimulated HUVEC); type: cell-based; conditions: 120 h, 5 days of culture with VEGF
# Description: Human umbilical vein-derived vascular endothelial cells (HUVEC purchased from KURABO […] LTD.) were cultured in an incubator at 37° C., 5% carbon dioxide in a vascular endothelial cell medium (Invitrogen) containing 3% bovine fetal serum and 2.5 ng/mL basic fibroblast growth factor. To be specific, HUVEC was suspended in a vascular endothelial cell medium containing the aforementioned 3% bovine fetal serum and plated on a 96 well flat bottom plate by 50 μL (3000 cells) each well. After culture overnight, various concentrations of the test substance and 120 ng/mL of vascular endothelial growth factor (VEGF) were dissolved in a vascular endothelial cell medium containing 3% bovine fetal serum and added to each well by 50 μL. After 5 days of culture, a Cell counting kit-8 reagent (DOJINDO LABORATORIES) was added to each well by 10 μL, and the mixture was reacted in an incubator at 37° C., 5% carbon dioxide for 2-3 hr. The absorbance at 450 nm was measured by a microtiter plate reader and the cell proliferation inhibitory activity was determined. Using the absorbance with addition of a test substance at each concentration and based on the nonlinear least-squares analysis using a logistic curve of SAS system NLIN procedure, the concentration of the test substance (IC50 value) necessary for showing 50% of the value obtained without addition of the test substance was calculated.
smiles,measurement,setting,value
"Cl.O=C(Nc1cn2cc(Oc3ccc(NC(=O)C4(C(=O)Nc5ccccc5)CC4)cc3F)ccc2n1)C1CC1 [Example 15, N-[4-({2-[(cyclopropylcarbonyl)amino]imidazo[1,2-a]pyridin-6-yl}oxy)-3-fluorophenyl]-N′-phenylcyclopropane-1,1-dicarboxamide hydrochloride]",tumor growth rate (%),"MKN-45 cells; MKN-45, dose 2 mg/kg",85%
same,tumor growth rate (%),MV-4-11 cells,17%
"Cc1ccc(C(=O)Nc2ccc(Oc3ccc4nc(NC(=O)C5CC5)cn4c3)cn2)[n+]([O-])c1-c1ccc(F)cc1.Cl.O [Example 63, N-[5-({2-[(cyclopropylcarbonyl)amino]imidazo[1,2-a]pyridin-6-yl}oxy)pyridin-2-yl]-6-(4-fluorophenyl)-5-methylpyridine-2-carboxamide 1-oxide•hydrochloride•monohydrate]",tumor growth rate (%),"MKN-45 cells; MKN-45, dose 1 mg/kg",24%
same,tumor growth rate (%),MV-4-11 cells,<0%
"Cc1ccc(C(=O)Nc2ccc(Oc3ccc4nc(NC(=O)C5CC5)cn4c3)c(F)c2)c(=O)n1-c1ccccc1.Cc1ccc(S(=O)(=O)O)cc1 [Example 87, N-[4-({2-[(cyclopropylcarbonyl)amino]imidazo[1,2-a]pyridin-6-yl}oxy)-3-fluorophenyl]-6-methyl-2-oxo-1-phenyl-1,2-dihydropyridine-3-carboxamide p-toluenesulfonate]",tumor growth rate (%),"MKN-45 cells; MKN-45, dose 2 mg/kg",17%
same,tumor growth rate (%),MV-4-11 cells,<0%
"Cc1ccc(C(=O)Nc2ccc(Oc3ccc4nc(NC(=O)C5CC5)cn4c3)c(F)c2)c(=O)n1-c1ccccc1.Cl [Example 88, N-[4-({2-[(cyclopropylcarbonyl)amino]imidazo[1,2-a]pyridin-6-yl}oxy)-3-fluorophenyl]-6-methyl-2-oxo-1-phenyl-1,2-dihydropyridine-3-carboxamide hydrochloride]",tumor growth rate (%),"MKN-45 cells; MKN-45, dose 2 mg/kg",17%
same,tumor growth rate (%),MV-4-11 cells,<0%
"Cc1ccc(C(=O)Nc2ccc(Oc3ccc4nc(NC(=O)C5CC5)cn4c3)c(F)c2)c(=O)n1-c1ccccc1 [Example 86, N-[4-({2-[(cyclopropylcarbonyl)amino]imidazo[1,2-a]pyridin-6-yl}oxy)-3-fluorophenyl]-6-methyl-2-oxo-1-phenyl-1,2-dihydropyridine-3-carboxamide acetate]",inhibition at 1 µM,"[1]; 1 μM test substance, read-out: inhibitory rate (%) at 1 μM",≥ 90%
same,IC50,[1],≤ 1000 nM
same,IC50,[2],≤ 1000 nM
same,IC50,[3]; read-out: IC50 value,≤ 1000 nM
same,inhibition at 1 µM,"[3]; read-out: inhibitory rate (%) at 1 μM, 1 μM test substance, culture for 3 days",≥ 80%
same,IC50,[4],≤ 1000 nM
same,IC50,[5],≤ 2000 nM

# From patent US8445509B2, “Fused heterocyclic derivatives and use thereof” (Takeda Pharmaceutical Company Limited, priority 2008, dated 2013)
